For 10 compounds, inhibition and zone of inhibition results are on record in ChEMBL document CHEMBL3045687, “Anti-microbial benzimidazole derivatives: synthesis and in vitro biological evaluation” (2012).

SMILES strings stand for the structures.

Common to all, as to assay type: functional
In one assay the test system is Staphylococcus aureus. As to the kind of experiment: Antimicrobial activity against Staphylococcus aureus assessed as zone of inhibition at 12.5 ug/ml after 18 to 24 hr by two-fold dilution technique relative to control.
The test system of a further assay is Candida albicans. As to the kind of experiment: Antimicrobial activity against Candida albicans assessed as zone of inhibition at 25 ug/ml after 48 hr by two-fold dilution technique relative to control.
The subject of another assay is Escherichia coli. As to the kind of experiment: Antimicrobial activity against Escherichia coli assessed as zone of inhibition at 12.5 ug/ml after 18 to 24 hr by two-fold dilution technique relative to control.

Regarding `COc1ccc(/C=C/c2nc3cc([N+](=O)[O-])ccc3[nH]2)c(OC)c1OC`, the inhibition at 12.5 µg/mL is 75.2% with Staphylococcus aureus and 76.6% with Escherichia coli. Moreover, in the assay with Candida albicans, the inhibition at 25 µg/mL came out at 82.5%.
The corresponding values for `COc1ccc(/C=C/c2nc3cc(Cl)ccc3[nH]2)cc1OC` are 75.2%, 80.5% and 92.4%.
The like results for `O=[N+]([O-])c1ccc2[nH]c(/C=C/c3ccc(O)cc3)nc2c1` were, in that order, 72.1%, 76.9% and 75%.
The like results for `Oc1ccc(/C=C/c2nc3cc(Cl)ccc3[nH]2)cc1` were, in that order, 70.8%, 79.9% and 75.6%.
As for `O=[N+]([O-])c1ccc2[nH]c(/C=C/c3ccc(Cl)cc3)nc2c1`, the inhibition at 12.5 µg/mL in the assay with Staphylococcus aureus came out at 82.1%; with Escherichia coli it was 80.7%. For the same compound, the inhibition at 25 µg/mL with Candida albicans came to 84.2%.
Take `OC(Cn1cncn1)(Cn1cncn1)c1ccc(F)cc1F` [FLUCONAZOLE]: the zone of inhibition at 25 µg/mL in the assay on Candida albicans (read-out: DIZ) amounted to 13.4 mm.
As for `O=C(O)c1cn(C2CC2)c2cc(N3CCNCC3)c(F)cc2c1=O` [CIPROFLOXACIN], the zone of inhibition at 12.5 µg/mL in the assay with Staphylococcus aureus (read-out: DIZ) stood at 14.4 mm; with Escherichia coli (read-out: DIZ) it was 15.9 mm.
As to `Clc1ccc2[nH]c(/C=C/c3ccccc3)nc2c1`, the results for the inhibition at 12.5 µg/mL with Staphylococcus aureus and in the assay with Escherichia coli were 76.2% and 77.7%, respectively. For the same compound, the inhibition at 25 µg/mL with Candida albicans is 88.5%.
The corresponding values for `O=[N+]([O-])c1ccc(/C=C/c2nc3cc([N+](=O)[O-])ccc3[nH]2)cc1` are 69.7%, 77.1% and 75.3%.
The like results for `COc1ccc(/C=C/c2nc3cc(Cl)ccc3[nH]2)c(OC)c1OC` were, in that order, 72.7%, 80.5% and 93.1%.
